Results as given in the METLIN SMRT retention time set (Domingo-Almenara et al. 2019).

Test: gradient 5% acetonitrile 3 min, to 50% in 2 min, to 85% in 15 min, held 3 min, 100 µL/min
Settings: column: Zorbax Extend-C18 2.1 x 50 mm; eluents: water / acetonitrile, 0.1% formic acid
How it was run: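 Values are retention times taken from adduct peaks that software picked and an analyst inspected. The pure standards were run as mixtures of ~100 molecules on HPLC linked to a quadrupole time-of-flight mass spectrometer, in positive and negative ionization mode. A Zorbax Extend-C18 column (2.1 × 50 mm, 1.8 μm) was used at 100 μL/min with water and acetonitrile, each including 0.1% formic acid.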

Row | RP-LC retention time | SMILES
1 | 652 s | Cc1nnc(-c2nnc(NCC(C)C)c3ccccc23)o1
2 | 733 s | CCOc1ccc(CC(=O)NC2CCN(c3cc(-c4cccs4)[nH]n3)C2)cc1 (configuration not stated)
3 | 1090 s | Cc1ccc(N2CC(c3noc(-c4cccc(C)c4)n3)CC2=O)cc1 (configuration not stated)
4 | 644 s | Cc1nn(-c2ccc(-c3ccccc3)nn2)c(C)c1S(=O)(=O)N1CCN(C)CC1
5 | 861 s | Cc1oc(C2CCN(S(=O)(=O)Cc3ccccc3)CC2)nc1C(=O)N1CCCC1
6 | 649 s | Cn1c(N2CCCC(C(=O)Nc3ccccc3)C2)cc(=O)n(C)c1=O (configuration not stated)
7 | 819 s | CC(NS(=O)(=O)c1ccc(Cl)c(-c2nnc(-c3ccccc3)o2)c1)C(=O)O (configuration not stated)
8 | 617 s | Cc1cc(C)c2c(N3CCSCC3)nc(C(=O)N3CCCC3)nc2n1
9 | 956 s | CN1C(=O)c2cc(C(=O)N3CCC(C(N)=O)CC3)nn2CC1(C)C(=O)NC1CCCCCC1 (configuration not stated)
10 | 722 s | CCCCC(=O)Nc1ccc2nc(N3CCN(c4cccc(C)c4)CC3)cc(C(=O)O)c2c1
11 | 631 s | Cc1ccc(C)c(S(=O)(=O)Nc2ccc3nc(N4CCN(CCC#N)CC4)cc(C(=O)O)c3c2)c1
12 | 1070 s | O=C(Nc1ccc(C(F)(F)F)cc1)c1cnc(-c2ccc(F)cc2)nc1-c1ccncc1
13 | 836 s | CC(C)Cc1nc(CNC(=O)C2CCCCC2)no1
14 | 817 s | O=C(NC1CCCCC1)C1CC(=O)N(CCc2c[nH]c3ccc(Cl)cc23)C1 (configuration not stated)
15 | 1160 s | CCOc1ccccc1NC(=O)Cn1c(C)nc2c(sc3nc(-c4ccccc4)ccc32)c1=O
16 | 556 s | CCCNc1cc(N2CCC(CCC(=O)NCc3ccccn3)CC2)ncn1
17 | 662 s | Clc1ccc(-c2cn3cccnc3n2)cc1
18 | 594 s | NC(=O)C1CCN(C(=O)Cc2cc(-c3cccs3)on2)CC1

Row | RP-LC retention time | SMILES
19 | 927 s | CN(C)c1cccc(C(=O)Nc2cc(-c3ccsc3)no2)c1
20 | 555 s | c1cncc(-c2n[nH]c(C3CCCCN3)n2)c1 (configuration not stated)
21 | 1030 s | COC(=O)c1cccc(NC(=O)NC(C(=O)N2CCc3ccccc32)c2ccccc2)c1 (configuration not stated)
22 | 679 s | CCCNC(=O)C1CCCN(c2nc3ncn(CC(=O)Nc4ccccc4F)c(=O)c3s2)C1 (configuration not stated)
23 | 915 s | Cc1noc(-c2ccnc(-n3cnc(C(=O)NC4CCCCCC4)c3)c2)n1
24 | 703 s | CN(C)C(=O)c1ccc2c(c1)nnn2CCNC(=O)Nc1ccc(Br)cc1F
25 | 827 s | Cc1nn(CC(=O)NC(C)c2ccc3c(c2)OCCO3)c(=O)c2c(C)n(-c3ccccc3)nc12 (configuration not stated)
26 | 808 s | Cc1ccccc1Nc1c(-c2cc(Br)ccc2F)nc2ccccn12
27 | 606 s | O=C(Cn1nc2c(cc1=O)CCCC2)Nc1nc(-c2ccncc2)cs1
28 | 705 s | COC(=O)c1ccc2c(=O)n(-c3cccc(OC)c3)c(N3CCN(c4ccccn4)CC3)nc2c1
29 | 700 s | CCOC(=O)c1[nH]c(C)c(CCC(=O)N2CCC(C(=O)NCc3ccc(OC)c(OC)c3)CC2)c1C
30 | 926 s | CCn1cc(-c2nc(C)c(C(=O)NCc3cccs3)s2)c2cccnc21
31 | 603 s | Cc1cc(C)cc(NC(=O)c2cnn3c2CCCC3)c1
32 | 904 s | O=C(Nc1nc(-c2cccc3ccccc23)cs1)c1ccncc1
33 | 726 s | CC12CC(c3ccccc3O1)C(C(=O)N1CCCCC1)C(=O)N2 (configuration not stated)
34 | 705 s | Cc1cc(=O)n(CC(=O)Nc2cccc(Br)c2)c(N2CCOCC2)n1
35 | 808 s | Cc1ccc(-c2csc(NC3OC(=O)c4ccccc43)n2)cc1C (configuration not stated)
36 | 622 s | CCOC(=O)c1cccc(Nc2ncccc2S(=O)(=O)NC)c1

Row | SMILES | RP-LC retention time
37 | CCCN1CCN(C(=O)Cc2ccc3nc(NC(C)=O)sc3c2)CC1 | 578 s
